In general, EC50 refers to the midpoint of the concentration-response curve. The low end stands for a more potent agent, the high end for a less potent agent.

The target in the assay is T1, Complement component 3a receptor 1, isoform CRA_a (Homo sapiens, UniProt A8K2H7).
T1 sequence (A8K2H7 whole entry): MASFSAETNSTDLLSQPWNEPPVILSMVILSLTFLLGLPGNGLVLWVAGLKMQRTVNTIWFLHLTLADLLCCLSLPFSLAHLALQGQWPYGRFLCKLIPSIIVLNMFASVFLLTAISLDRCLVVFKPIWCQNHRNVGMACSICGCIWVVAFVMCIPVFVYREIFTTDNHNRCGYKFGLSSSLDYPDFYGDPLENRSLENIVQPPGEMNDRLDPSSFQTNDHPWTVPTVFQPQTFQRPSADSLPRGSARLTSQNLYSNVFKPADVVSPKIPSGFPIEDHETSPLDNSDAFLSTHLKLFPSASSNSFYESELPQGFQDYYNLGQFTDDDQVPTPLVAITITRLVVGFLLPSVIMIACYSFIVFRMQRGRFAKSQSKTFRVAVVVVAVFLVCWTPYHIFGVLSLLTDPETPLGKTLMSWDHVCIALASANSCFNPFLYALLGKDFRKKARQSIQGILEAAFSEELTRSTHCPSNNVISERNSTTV
The assay is described as follows: Agonist activity at human C3AR1 expressed in […] by FLIPR assay. Format: functional, cell-based.
In the case of `CCCCc1nc2cccc(CCCl)c2n1Cc1ccc(-c2ccccc2C(=O)O)cc1`, the midpoint of the response, the EC50, lay at 310 nM.

For `CCCCc1cn(Cc2ccc(-c3ccccc3C(=O)O)cc2)c2cccc(SC)c2c1=O`, the EC50 was determined as 530 nM. In turn, `CCCc1nc(Br)c(S(C)(=O)=O)n1Cc1ccc(-c2ccccc2-c2nn[nH]n2)cc1` had a half-maximal effective concentration (EC50) of 2 nM. In turn, `CCCCn1c(Cc2ccccc2)nc2cc(/C(=C/C(=O)O)c3ccccc3)ccc21` returned an EC50 of 2.7 nM.
